This test addresses T1, protein tyrosine phosphatase (PTPase) from Thermus thermophilus HB27 (Thermus thermophilus, UniProt Q72JF6).
T1 construct: gene TT_C0816; recombinant, expressed in E. coli BL21(DE3), purified to homogeneity; low molecular weight PTPase, CX5R(S/T) P-loop with Cys11; monomer in solution
Kind of test: phosphatase activity, absorbance at […] nm. It is filed as biochemical.

Structures can show the parent of a compound that is named as a salt.

As a reminder, the Ki is the equilibrium dissociation constant of an inhibitor or competing ligand from its target.

T1 sequence (Q72JF6 entry or part of it): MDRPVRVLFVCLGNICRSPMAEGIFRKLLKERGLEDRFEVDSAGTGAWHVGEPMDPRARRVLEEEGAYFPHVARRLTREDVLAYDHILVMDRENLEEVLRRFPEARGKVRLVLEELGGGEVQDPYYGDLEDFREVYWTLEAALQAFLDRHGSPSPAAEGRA

`N=C(N)N` [guanidine hydrochloride] showed a Ki of 270 µM.

The values are drawn from PMC4177882, “Inactivation and Unfolding of Protein Tyrosine Phosphatase from Thermus thermophilus HB27 during Urea and Guanidine Hydrochloride Denaturation” (PLoS ONE, 2014).
